Legend:
LLC-PK1 monolayer model = assay: Inhibition study of [14C]fluciclovine apical-to-basal transport, LLC-PK1 monolayer model
Source text: Natural and synthetic amino acids were used as inhibitors: MeAIB (2-(methylamino)-isobutyric acid, for system A in the presence of Na^+); Thr (L-threonine, for system ASC in the presence of Na^+); and BCH (2-aminobicyclo[2,2,1]heptane-2-carboxylic acid, for system L in the absence of Na^+).

human P-gp = target: T1, human P-gp (Homo sapiens, UniProt P08183); assay: [14C]fluciclovine uptake by P-gp-expressing inside-out vesicles; assay type: in vitro ADME
T1 construct: purchased GenoMembrane Co., Ltd. (Kanagawa, Japan); host or cells: Sf9
Protocol: (§1) For ABC transporters, experimental kits containing Sf9-derived vesicles with high expression levels of human P-gp, MRP4, BCRP, and each ABC transporter (including buffer, ATP/AMP solution, and glutathione) were purchased from GenoMembrane Co., Ltd. (Kanagawa, Japan).
(§2) Vesicular transport assays were carried out according to the manufacturer’s protocol. […] The reaction was started by suspending 50 μg of vesicles (10 μL) in 40 μL of the reaction buffer. After incubation for an appropriate period of time, the reaction was stopped by the addition of ice-cold stop buffer (40 mM MOPS-Tris and 70 mM KCl; pH 7.0), after which the solution was filtered through a 0.45 μm HA filter (Millipore Corp., Billerica, MA, USA) using suction, and was washed twice in 5 mL of ice-cold stop buffer. The radioactivity of the filter was measured with a Tri-Carb 2910TR liquid scintillation counter (PerkinElmer) using Ultima Gold (PerkinElmer). The amount of tracer uptake was normalized to the membrane protein amount described in the product information sheets.

human BCRP [1] = target: T2, human BCRP (Homo sapiens, UniProt Q9UNQ0); assay: [14C]fluciclovine uptake by BCRP-expressing inside-out vesicles; assay type: in vitro ADME
T2 construct: purchased GenoMembrane Co., Ltd. (Kanagawa, Japan); host or cells: Sf9
T2 sequence (Q9UNQ0 1-655): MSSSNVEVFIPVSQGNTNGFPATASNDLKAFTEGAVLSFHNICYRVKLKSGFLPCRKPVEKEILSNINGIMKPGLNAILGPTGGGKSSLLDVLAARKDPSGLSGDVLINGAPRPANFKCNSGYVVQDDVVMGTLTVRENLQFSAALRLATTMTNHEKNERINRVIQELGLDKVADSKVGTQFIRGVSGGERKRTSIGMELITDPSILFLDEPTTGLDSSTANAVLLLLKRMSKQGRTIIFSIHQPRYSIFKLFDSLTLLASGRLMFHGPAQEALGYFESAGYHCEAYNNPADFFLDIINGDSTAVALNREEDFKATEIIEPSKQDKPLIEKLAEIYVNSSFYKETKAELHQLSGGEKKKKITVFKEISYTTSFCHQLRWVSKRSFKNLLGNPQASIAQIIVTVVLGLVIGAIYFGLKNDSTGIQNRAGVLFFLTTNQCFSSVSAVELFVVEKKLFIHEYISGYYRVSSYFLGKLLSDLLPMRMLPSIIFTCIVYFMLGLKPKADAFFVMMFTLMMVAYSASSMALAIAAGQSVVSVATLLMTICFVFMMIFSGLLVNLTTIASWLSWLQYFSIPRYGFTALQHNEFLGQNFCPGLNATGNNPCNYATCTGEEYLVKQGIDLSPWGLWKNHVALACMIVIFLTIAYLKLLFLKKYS
Protocol: as §1, §2

human BCRP [2] = target: T2, human BCRP; assay: Inhibition of tracer uptake in BCRP-expressing vesicles; assay type: in vitro ADME; details: ES 0.1 µM, 100 µM–12.5 mM fluciclovine
Protocol: as §1, §2

human MRP4 = target: T3, human MRP4 (Homo sapiens, UniProt O15439); assay: Inhibition of tracer uptake in MRP4-expressing vesicles; assay type: in vitro ADME; details: MRP4, tracer [3H]E2G 10 µM
T3 construct: purchased GenoMembrane Co., Ltd. (Kanagawa, Japan); host or cells: Sf9
T3 sequence (O15439 1-1325): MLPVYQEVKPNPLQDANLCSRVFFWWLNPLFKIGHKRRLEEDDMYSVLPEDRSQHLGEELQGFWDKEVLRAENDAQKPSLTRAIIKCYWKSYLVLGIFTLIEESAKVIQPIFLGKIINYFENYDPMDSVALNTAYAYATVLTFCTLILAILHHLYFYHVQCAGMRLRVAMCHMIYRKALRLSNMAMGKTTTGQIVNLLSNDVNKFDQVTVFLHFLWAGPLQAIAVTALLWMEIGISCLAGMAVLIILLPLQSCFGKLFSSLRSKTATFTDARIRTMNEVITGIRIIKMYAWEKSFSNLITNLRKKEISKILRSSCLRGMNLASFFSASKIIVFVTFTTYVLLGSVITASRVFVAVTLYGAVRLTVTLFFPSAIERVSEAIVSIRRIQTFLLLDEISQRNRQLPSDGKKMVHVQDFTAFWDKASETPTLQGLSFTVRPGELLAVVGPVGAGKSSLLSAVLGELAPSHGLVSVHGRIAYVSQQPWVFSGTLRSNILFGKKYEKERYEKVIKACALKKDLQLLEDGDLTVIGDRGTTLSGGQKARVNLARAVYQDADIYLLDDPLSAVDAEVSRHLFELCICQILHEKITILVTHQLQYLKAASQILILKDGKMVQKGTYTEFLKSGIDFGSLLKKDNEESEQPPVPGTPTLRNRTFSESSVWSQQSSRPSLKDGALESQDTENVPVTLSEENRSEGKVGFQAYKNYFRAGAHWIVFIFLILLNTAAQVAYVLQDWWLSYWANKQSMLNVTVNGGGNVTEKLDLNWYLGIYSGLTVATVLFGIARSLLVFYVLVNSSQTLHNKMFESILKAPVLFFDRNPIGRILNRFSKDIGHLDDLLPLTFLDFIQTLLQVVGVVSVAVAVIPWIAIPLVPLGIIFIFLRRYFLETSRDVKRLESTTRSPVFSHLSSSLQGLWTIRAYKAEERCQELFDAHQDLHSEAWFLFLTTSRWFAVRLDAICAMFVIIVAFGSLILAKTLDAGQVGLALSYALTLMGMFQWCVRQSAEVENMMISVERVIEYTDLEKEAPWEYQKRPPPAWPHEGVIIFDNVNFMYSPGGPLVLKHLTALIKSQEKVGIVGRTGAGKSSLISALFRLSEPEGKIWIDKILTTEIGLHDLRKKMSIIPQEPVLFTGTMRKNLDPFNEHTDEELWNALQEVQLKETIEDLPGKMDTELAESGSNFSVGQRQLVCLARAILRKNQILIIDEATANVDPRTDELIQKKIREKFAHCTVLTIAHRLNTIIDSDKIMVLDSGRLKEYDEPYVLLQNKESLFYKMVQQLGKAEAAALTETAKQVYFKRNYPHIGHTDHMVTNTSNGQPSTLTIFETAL
Protocol: as §1, §2

T1 sequence (P08183 whole entry): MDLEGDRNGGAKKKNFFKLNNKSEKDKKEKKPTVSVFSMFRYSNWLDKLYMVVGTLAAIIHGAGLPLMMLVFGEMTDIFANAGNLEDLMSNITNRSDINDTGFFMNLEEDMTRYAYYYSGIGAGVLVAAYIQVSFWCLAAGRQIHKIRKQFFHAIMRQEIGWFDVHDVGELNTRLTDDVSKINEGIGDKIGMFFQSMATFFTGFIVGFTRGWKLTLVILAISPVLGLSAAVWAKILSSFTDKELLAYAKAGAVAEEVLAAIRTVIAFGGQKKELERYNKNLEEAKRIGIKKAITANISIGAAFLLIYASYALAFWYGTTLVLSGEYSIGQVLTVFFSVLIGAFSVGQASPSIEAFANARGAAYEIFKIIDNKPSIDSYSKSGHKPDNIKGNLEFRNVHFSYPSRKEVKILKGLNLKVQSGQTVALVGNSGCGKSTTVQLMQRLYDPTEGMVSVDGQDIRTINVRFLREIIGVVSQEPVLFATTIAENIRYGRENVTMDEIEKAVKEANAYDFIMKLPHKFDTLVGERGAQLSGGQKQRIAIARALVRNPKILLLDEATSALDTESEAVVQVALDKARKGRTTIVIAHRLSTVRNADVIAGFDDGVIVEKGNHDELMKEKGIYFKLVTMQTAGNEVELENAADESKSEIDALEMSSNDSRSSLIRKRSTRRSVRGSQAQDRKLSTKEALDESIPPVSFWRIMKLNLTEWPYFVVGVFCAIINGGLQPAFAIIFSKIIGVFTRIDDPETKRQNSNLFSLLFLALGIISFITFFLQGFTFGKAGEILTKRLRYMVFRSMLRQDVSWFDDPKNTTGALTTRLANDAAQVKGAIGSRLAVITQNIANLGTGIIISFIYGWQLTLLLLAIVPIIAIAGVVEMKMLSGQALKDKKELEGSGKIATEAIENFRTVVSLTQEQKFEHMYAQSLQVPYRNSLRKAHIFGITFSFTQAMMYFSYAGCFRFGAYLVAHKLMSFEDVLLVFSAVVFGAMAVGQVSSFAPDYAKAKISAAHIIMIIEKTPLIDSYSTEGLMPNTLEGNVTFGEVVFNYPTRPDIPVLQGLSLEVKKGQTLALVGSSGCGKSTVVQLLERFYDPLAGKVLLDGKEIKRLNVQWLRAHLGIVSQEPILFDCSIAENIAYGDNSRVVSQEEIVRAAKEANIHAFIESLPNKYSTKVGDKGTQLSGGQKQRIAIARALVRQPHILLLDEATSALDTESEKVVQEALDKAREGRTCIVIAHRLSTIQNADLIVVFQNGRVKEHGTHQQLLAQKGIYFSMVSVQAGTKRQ

SMILES	apical-to-basal transport rate, % of the control in Na+ buffer (LLC-PK1 monolayer model; Na+-free buffer, 10 µM, 120 min) [%]	contribution of Na+-dependent transport to the total penetration amount (LLC-PK1 monolayer model; control in Na+-free buffer subtracted from control in Na+ buffer) [%]	uptake compared with control vesicles (human P-gp)	uptake compared with control vesicles (human BCRP [1])	inhibition of transport of BCRP-specific substrate [3H]estrone-3-sulfate (human BCRP [2])	IC50 (human MRP4) [mM]
N[14C]1(C(=O)O)CC(F)C1 (stereo not drawn) [[^14C]fluciclovine, trans-1-amino-3-fluoro[1-^14C]cyclobutanecarboxylic acid]	58.8	41.2	no significant difference	reduced in comparison to that of the control vesicles, albeit not significantly		
N[C@]1(C(=O)O)C[C@@H](F)C1 [fluciclovine]					does not inhibit	9.28 ± 1.9

Reference: article PMC5085761 (International Journal of Molecular Sciences, 2016)
